Experiment [1] addresses T1, EGF receptor tyrosine kinase (Homo sapiens, UniProt P00533).
T1 construct: Receptor tyrosine kinase was obtained in partially purified form from A431 cells; endogenous in cells; host or cells: A431 cells (human vulval carcinoma); Triton X-100-solubilised membrane fraction
Briefly: In vitro inhibition of the enzyme EGF receptor tyrosine kinase (test (a)). In kind it is biochemical. To be noted: approximate value, enzyme partially purified from A431 cells, with EGF, 25° C., 10 minutes. The procedure: (a) An in vitro assay which determines the ability of a test compound to inhibit the enzyme EGF receptor tyrosine kinase. Receptor tyrosine kinase was obtained in partially purified form from A431 cells (derived from human vulval carcinoma) by the procedures described below which are related to those described by Carpenter et al., J. Biol. Chem., 1979, 254,4884, Cohen et al., J. Biol. Chem, 1982, 257, 1523 and by Braun et al., J. Biol. Chem., 1984, 259, 2051.
A-431 cells were grown to confluence using Dulbecco's modified Eagle's medium (DMEM) containing 5% fetal calf serum (FCS). The obtained cells were homogenised in a hypotonic borate/EDTA buffer at pH 10.1. The homogenate was centrifuged at 400 g for 10 minutes at 0-4° C. The supernatant was centrifuged at 25,000 g for 30 minutes at 0-4° C. […]
The test compound/EGF mixture solution (5 μl) was added to the test enzyme solution (10 μl) and the mixture was incubated at 0-4° C. for 30 minutes. […] Radioactivity present in the filter paper was measured using a liquid scintillation counter (Sequence A). […]
Receptor tyrosine kinase inhibition was calculated as follows: [formula]
The extent of inhibition was then determined at a range of concentrations of test compound to give an IC50 value.

For experiment [2], the system named is xenografts of the human vulval epidermoid carcinoma cell line A431. Briefly: In vivo inhibition of growth of A431 xenografts in athymic nude mice (test (c)). On the set-up: species or system athymic nude mice (strain ONU:Alpk); human tumour. To be noted: approximate, daily dose of 50 mg/kg, usually orally, once daily, usually 13 days, relative to untreated controls. As to the method: (c) An in-vivo assay in a group of athymic nude mice (strain ONU:Alpk) which determines the ability of a test compound (usually administered orally as a ball-milled suspension in 0.5% polysorbate) to inhibit the growth of xenografts of the human vulval epidermoid carcinoma cell line A431. A431 cells were maintained in culture in DMEM supplemented with 5% FCS and 2 mM glutamine. Freshly cultured cells were harvested by trvpsinization and injected subcutaneously (10 million cells/0.1 ml/mouse) into both flanks of a number of donor nude mice. When sufficient tumour material was available (after approximately 9 to 14 days), fragments of tumour tissue were transplanted in the flanks of recipient nude mice (test day 0). Generally, on the seventh day after transplantation (test day 7) groups of 7 to 10 mice with similar-sized tumours were selected and dosing of the test compound was commenced. Once daily dosing of test compound was continued for a total of 13 days (test days 7 to 19 inclusive). In some studies the dosing of the test compound was continued beyond test day 19, for example to test day 26. In each case. on the following test day the animals were killed and the final tumour volume was calculated from measurements of the length and width of the tumours. Results were calculated as a percentage inhibition of tumour volume relative to untreated controls.

Experiment [3] has as its system human naso-pharyngeal cancer cell line KB. Description: In vitro inhibition of the EGF-stimulated growth of the human naso-pharyngeal cancer cell line KB (test (b)). In kind it is cell-based. To be noted: 72 h, approximate value, KB cells, EGF (10 ng/ml), 3 days, MTT. As to the method:
(b) An in vitro assay which determines the ability of a test compound to inhibit the EGF-stimulated growth of the human naso-pharyngeal cancer cell line KB.
KB cells were seeded into wells at a density of 1×10^4 -1.5×10^4 cells per well and grown for 24 hours in DMEM supplemented with 5% FCS (charcoal-stripped). Cell growth was determined after incubation for 3 days by the extent of metabolism of MTT tetrazolium dye to furnish a bluish color. Cell growth was then determined in the presence of EGF (10 ng/ml) or in the presence of EGF (10 ng/ml) and a test compound at a range of concentrations. An IC50 value could then be calculated.

Experiment [4] relates to human mammary carcinoma which expresses EGF receptor tyrosine kinase. The conditions noted are these: athymic nude mice; Toi et al., 1990; cited from earlier work.

Molecules are shown by their SMILES.

Results on 2 compounds are retold here after patent US5952333A, “Quinazoline derivative” (Zeneca Limited, priority 1995, dated 1999).

T1 sequence (P00533 25-1210): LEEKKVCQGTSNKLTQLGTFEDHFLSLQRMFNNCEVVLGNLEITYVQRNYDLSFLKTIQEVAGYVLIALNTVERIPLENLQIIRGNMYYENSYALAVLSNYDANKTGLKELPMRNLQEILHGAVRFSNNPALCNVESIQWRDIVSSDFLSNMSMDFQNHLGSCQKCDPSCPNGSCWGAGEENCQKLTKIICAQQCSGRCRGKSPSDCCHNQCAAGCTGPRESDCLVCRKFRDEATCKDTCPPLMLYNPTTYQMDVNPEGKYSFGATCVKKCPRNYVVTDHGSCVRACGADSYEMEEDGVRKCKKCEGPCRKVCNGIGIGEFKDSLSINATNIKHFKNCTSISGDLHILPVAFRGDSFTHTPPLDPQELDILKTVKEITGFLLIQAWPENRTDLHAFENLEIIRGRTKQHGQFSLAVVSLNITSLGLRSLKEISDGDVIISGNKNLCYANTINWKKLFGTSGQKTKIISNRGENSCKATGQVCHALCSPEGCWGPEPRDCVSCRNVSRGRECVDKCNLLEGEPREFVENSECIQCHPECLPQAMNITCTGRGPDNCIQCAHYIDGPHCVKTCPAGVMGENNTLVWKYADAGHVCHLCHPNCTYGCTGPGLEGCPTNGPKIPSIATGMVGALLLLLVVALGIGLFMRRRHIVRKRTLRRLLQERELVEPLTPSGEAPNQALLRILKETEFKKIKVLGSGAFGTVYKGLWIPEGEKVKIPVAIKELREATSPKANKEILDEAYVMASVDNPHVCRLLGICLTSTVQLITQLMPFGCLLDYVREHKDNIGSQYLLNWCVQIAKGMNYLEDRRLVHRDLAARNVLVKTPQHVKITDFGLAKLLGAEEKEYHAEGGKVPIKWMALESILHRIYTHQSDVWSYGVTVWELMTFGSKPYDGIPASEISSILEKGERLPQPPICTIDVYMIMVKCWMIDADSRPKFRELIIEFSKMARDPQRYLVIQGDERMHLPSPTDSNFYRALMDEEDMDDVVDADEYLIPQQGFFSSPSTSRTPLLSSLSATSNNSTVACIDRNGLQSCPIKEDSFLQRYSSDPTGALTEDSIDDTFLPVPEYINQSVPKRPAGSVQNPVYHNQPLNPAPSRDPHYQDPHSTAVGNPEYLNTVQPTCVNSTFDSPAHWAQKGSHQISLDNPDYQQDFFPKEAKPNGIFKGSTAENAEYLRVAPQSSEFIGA

In the case of `COCCNc1cc2c(Nc3cccc(C)c3)ncnc2cc1OC` [compound of the invention, 6-(2-methoxyethylamino)-7-methoxy-4-(3'-methylanilino)quinazoline], the IC50 in experiment [1] is roughly 10 nM; in experiment [3], roughly 200 nM. In experiment [2], the “inhibition of tumour volume” value is roughly 50%.

In the case of `O=CN/C=C/c1cc(O)ccc1O` [erbstatin], in experiment [4], the “growth of transplanted human mammary carcinoma which expresses EGF receptor tyrosine kinase” value was “specifically attenuates the growth”.

In general, IC50 refers to the concentration that inhibits the measured activity by half. A lower IC50 goes with greater potency in that assay.
